The values that follow come from US7586022B2, “Transgenic non-human animal model of lung tumorigenesis” (Trustees of Dartmouth College, priority 2006, dated 2009).

“Also recorded” adds a separate entry of the source.

The test system of one experiment is exogenous cyclin E. Briefly: exogenous cyclin E expression in retrovirally transduced BEAS-2B cells treated with agents. The format is cell-based, human. The following applies: treated for 24, 36 and 48 hours. The method, then: To determine whether other agents could modulate the expression of cyclin E, […], N-(4-hydroxyphenyl)retinamide (4HPR or fenretinide), or other non-classical retinoids for 24, 36 and 48 hours.

The test system of experiment [1] is BEAS-2B human bronchial epithelial cells. The following applies: cited from earlier work.

For `CC1(C)CC[C@]2(C(=O)O)CC[C@]3(C)[C@H](C(=O)C=C4[C@@]5(C)C=C(C#N)C(=O)C(C)(C)[C@@H]5CC[C@]43C)[C@@H]2C1` [CDDO, 2-cyano-3,12-dioxooleana-1,9-dien-28-oic acid], the “exogenous cyclin E expression” value in the experiment with exogenous cyclin E is “potently repress exogenous cyclin E expression; also recorded: most potently decreased exogenous cyclin E expression, as early as 24 hours after treatment”.

For the compound `CC1=C(/C=C/C(C)=C/C=C/C(C)=C/C(=O)O)C(C)(C)CCC1` [RA, All-trans-retinoic acid], the NNK-mediated transformation entry in experiment [1] (BEAS-2B cells exposed to NNK) is given as “antagonizes NNK-mediated transformation by causing G1 arrest”. Moreover, the “cyclin E expression” value in experiment [1] (RA treatment) was “represses cyclin E expression via activation of a proteosomal degradation pathway”.
